Laboratory results taken from article PMC3898886, “P-glycoprotein (Mdr1a/1b) and breast cancer resistance protein (Bcrp) decrease the uptake of hydrophobic alkyl triphenylphosphonium cations by the brain” (Biochimica et Biophysica Acta, 2013).

Tests used:
[1] = test system: P-glycoprotein (Mdr1a/1b) and breast cancer resistance protein (Bcrp); assay: tissue and blood content of [3H] TPP compound after IV injection, transgenic mice lacking ABC transporters, compared with wild type; settings: for uptake into the brain, transgenic compared to wild type mice: radioactivity in brain over 20 h; for ratio of compound in the brain relative to the blood, transgenic versus WT: 5 h after IV injection of 100 nmol; for AUC for accumulation into the brain: transgenic mice
Method: (§1) For injection the mice were placed in a restraining tube and injected by the tail vein with 100 nmol [^3H] compound (~ 400–500 nCi) in 100 μL sterile phosphate buffered saline (PBS) supplemented with 10% DMSO. A sample of the [^3H] compound solution injected was retained to calculate the specific activity, which was subsequently used to determine the tissue contents of the compound. Two WT mice and two transgenic mice were injected for each compound for each time point. […] At the indicated times after injection, the mice were killed by cervical dislocation and a blood sample of ~ 100–200 μL was obtained by cardiac puncture. The organs were then removed, cleared of blood by cutting into pieces and rinsing with saline, transferred to pre-chilled Eppendorf tubes on ice, weighed and stored at − 80 °C until processing. The tissues taken were: heart, kidneys, liver, brain, skeletal muscle (gastrocnemius) and white adipose tissue (subcutaneous). […] The mice were monitored after injection to ensure no pathology or distress.
Tissues were thawed at room temperature and transferred to 50 mL Falcon tubes. Ice-cold methanol (~ 4 °C; 1 mL/100 mg tissue wet weight) was added to the tissue and the tissue homogenised using an Ultra Turrax homogeniser (2 × 30 s on ice). The homogenate was transferred in 1 mL batches to 1.5 mL Eppendorf tubes and centrifuged (10,000 ×g for 8 min at 4 °C). The methanol extract was decanted into a 20 mL glass scintillation vial (Wheaton) and the methanol evaporated under a stream of N2. Further ice-cold methanol (1 mL/100 mg) was added to the tissue homogenate pellets, vortexed for 1 min, centrifuged as above and the methanol extract decanted to a fresh 20 mL glass scintillation vial and evaporated. This procedure was repeated 3 more times to give 5 extracts per tissue sample. […] Scintillant (OptiPhase HiSafe II; 10 mL) was added to each vial, [^3H] DPM content measured in a scintillation counter (LKB Wallac 1217 Rackbeta) using appropriate quench corrections and the total amount of radioactivity per sample calculated. The specific activity of the injected [^3H] compound was then used to calculate the tissue content as mol compound/g wet weight tissue.

[2] = cited from earlier work
[3] = tissue and blood content of [3H] TPP compound after IV tail vein injection, wild type mice; settings: 100 nmol IV; for uptake by adipose tissue / uptake by the heart / uptake by the kidneys: wild type and transgenic mice; for AUC for accumulation into the brain: WT mice
Method: as §1
Tissues were thawed at room temperature and transferred to 50 mL Falcon tubes. Ice-cold methanol (~ 4 °C; 1 mL/100 mg tissue wet weight) was added to the tissue and the tissue homogenised using an Ultra Turrax homogeniser (2 × 30 s on ice). The homogenate was transferred in 1 mL batches to 1.5 mL Eppendorf tubes and centrifuged (10,000 ×g for 8 min at 4 °C). The methanol extract was decanted into a 20 mL glass scintillation vial (Wheaton) and the methanol evaporated under a stream of N2. Further ice-cold methanol (1 mL/100 mg) was added to the tissue homogenate pellets, vortexed for 1 min, centrifuged as above and the methanol extract decanted to a fresh 20 mL glass scintillation vial and evaporated. This procedure was repeated 3 more times to give 5 extracts per tissue sample. […] Scintillant (OptiPhase HiSafe II; 10 mL) was added to each vial, [^3H] […] The specific activity of the injected [^3H] compound was then used to calculate the tissue content as mol compound/g wet weight tissue.

[4] = monitoring of mice after IV injection for pathology or distress; type: in vivo; settings: 100 nmol IV
Method: as §1

[5] = published value; cited from earlier work
[6] = test system: P-gp isoforms Mdr1a and Mdr1b; set-up: method as in PMID 19722701; settings: cited from earlier work
P-gp = assay: uptake of [3H] MitoF into tissues after pretreatment with CsA; type: in vivo, female C57/BL6 mice; settings: tissues 60 min later
Method: To assess the effects of co-administration of cyclosporin A (CsA) on the uptake of MitoF, female C57/BL6 mice (~ 20 g) were used. The mice were injected with CsA (Sandimmun, Novartis supplied as 50 mg/mL solution which was diluted 1:4 in sterile PBS and injected 100 μL at 50 mg/kg) IV by tail vein injection, or with PBS carrier, followed 30 min later with [^3H] MitoF (100 nmol) by IV tail vein injection and 60 min later the mice were killed and the tissues harvested. All procedures were approved by the University of Otago animal ethics committee.

[7] = 100 nmol IV, 1 to 20 h post injection
[8] = 100 nmol IV, 1 to 48 h post injection

uptake in the liver, transgenic mice compared to controls ([1]; 100 nmol IV)	uptake into the brain, transgenic compared to wild type mice ([1]; 100 nmol IV)	uptake by adipose tissue [3]	uptake by the heart [3]	Structure (SMILES)	uptake into heart, kidney and white adipose tissue, transgenic versus wild type mice ([1]; 100 nmol IV)	ratio of compound in the brain relative to the blood, transgenic versus WT [1]	uptake by the kidneys [3]	octan-1-ol/PBS partition coefficient [5]	also measured
				c1ccc([P+](c2ccccc2)(c2ccccc2)c2ccccc2)cc1 [tetraphenylphosphonium cation, tetraphenylphosphonium]					effect of ablation of Mdr1a and Mdr1b on uptake across the BBB [6]: did not increase
increase in the uptake	greater uptake into the brain	lower uptake	less extensive uptake	FCCCCCCCCCCC[P+](c1ccccc1)(c1ccccc1)c1ccccc1 [MitoF, Fluoroundecyltriphenylphosphonium]	no difference	increased uptake	extensive uptake	740 ± 100	effect of CsA on uptake into the brain, muscle, fat, heart or kidney (P-gp; CsA 50 mg/kg IV 30 min before 100 nmol [3H] MitoF IV): did not affect; effect of CsA on uptake into the liver (P-gp; CsA 50 mg/kg IV 30 min before 100 nmol [3H] compound IV): increase uptake; increase of brain AUC, transgenic versus WT [1, 8]: ~ 9 fold; AUC for accumulation into the brain [1, 8]: 16.6 nmol·h/g wet weight; AUC for accumulation into the brain ([3]; 1 to 48 h post injection): 1.9 nmol·h/g wet weight
not	no difference	lower uptake	less extensive uptake	C[P+](c1ccccc1)(c1ccccc1)c1ccccc1 [TPMP, methyltriphenylphosphonium, reference compound]					change of brain AUC, transgenic versus WT ([1]; 100 nmol IV, 1 to 5 h post injection): unchanged; AUC for accumulation into the brain ([3]; 1 to 5 h post injection): 0.87 nmol·h/g wet weight

Structure (SMILES)	uptake in the liver, transgenic mice compared to controls ([1]; 100 nmol IV)	uptake into the brain, transgenic compared to wild type mice ([1]; 100 nmol IV)	uptake by adipose tissue [3]	uptake by the heart [3]	uptake into heart, kidney and white adipose tissue, transgenic versus wild type mice ([1]; 100 nmol IV)	ratio of compound in the brain relative to the blood, transgenic versus WT [1]	uptake by the kidneys [3]	octan-1-ol/PBS partition coefficient [5]	also measured
COC1=C(OC)C(=O)C(CCCCCCCCCC[P+](c2ccccc2)(c2ccccc2)c2ccccc2)=C(C)C1=O [MitoQ, mitoquinone]	increase in the uptake	greater uptake into the brain	lower uptake	less extensive uptake	no difference	increased uptake	extensive uptake	2760	increase of brain AUC, transgenic versus WT [1, 7]: ~ 4 fold; AUC for accumulation into the brain [1, 7]: 2.3 nmol·h/g wet weight; effect of CsA on biliary excretion [2]: inhibited; proportion of an IV dose excreted by the biliary pathway ([2]; within 4 h): 25%; AUC for accumulation into the brain ([3]; 1 to 20 h post injection): 0.6 nmol·h/g wet weight; toxicity of the injected amount [4]: non-toxic
